According to patent publication US9320733B2, “Assessment and modulation of cerebrospinal fluid for head pain” (priority 2010, dated 2016):

System: patient with headache (CSF pressures 13-14 cmW)
Test: Case report (Example 1): one patient with 10 years of headache and normal CSF pressure, treated by CSF removal via lumbar puncture and then Diamox
Format: in vivo, human
Experimental: Therefore more CSF was drained 10 ml total. […] For example triptans may be combined with Diamox or diuretics, triptans may be combined with NSAM or Lumbar puncture, shunts or intraocular drainage procedures may be use singularly or together.

postdural puncture headache (PDPH) while on treatment (3 days after LP with 10 ml CSF drained and start of Diamox, PDPH lost on brief discontinuation) | SMILES | usual headache after being placed on Diamox (after removal of 10 ml CSF by LP, 3 days later) | symptom status on maintenance treatment (low dose Diamox, after CSF removal) | response of the major headache component to medication (10 years of headache, before CSF removal)
developed postdurai puncture headache | CC(=O)Nc1nnc(S(N)(=O)=O)s1 [Diamox, acetazolamide] | total absence of their usual headache | symptom free | 
 | CC1(C)O[C@@H]2[C@@H](CO[C@@]3(COS(N)(=O)=O)OC(C)(C)O[C@@H]23)O1 [Topamax, topiramate] |  |  | refractory to treatment
